We go through four molecules from US4647571A, “Cysteine delivery composition” (Cornell Research Foundation, priority 1982, dated 1987).

Molecules are shown by their SMILES. Values joined by “and” are separate entries in the source; they are usually repeats but may differ in a detail not shown here. Equal entries are not always repeated.

In assay [1] the target is T1, 5-oxo-L-prolinase (Rattus norvegicus, UniProt P97608).
T1 construct: 5-Oxo-L-prolinase was isolated from rat kidney and freed of 5-oxoproline by gel filtration; from tissue; host or cells: rat kidney
T1 sequence (P97608 1-1288): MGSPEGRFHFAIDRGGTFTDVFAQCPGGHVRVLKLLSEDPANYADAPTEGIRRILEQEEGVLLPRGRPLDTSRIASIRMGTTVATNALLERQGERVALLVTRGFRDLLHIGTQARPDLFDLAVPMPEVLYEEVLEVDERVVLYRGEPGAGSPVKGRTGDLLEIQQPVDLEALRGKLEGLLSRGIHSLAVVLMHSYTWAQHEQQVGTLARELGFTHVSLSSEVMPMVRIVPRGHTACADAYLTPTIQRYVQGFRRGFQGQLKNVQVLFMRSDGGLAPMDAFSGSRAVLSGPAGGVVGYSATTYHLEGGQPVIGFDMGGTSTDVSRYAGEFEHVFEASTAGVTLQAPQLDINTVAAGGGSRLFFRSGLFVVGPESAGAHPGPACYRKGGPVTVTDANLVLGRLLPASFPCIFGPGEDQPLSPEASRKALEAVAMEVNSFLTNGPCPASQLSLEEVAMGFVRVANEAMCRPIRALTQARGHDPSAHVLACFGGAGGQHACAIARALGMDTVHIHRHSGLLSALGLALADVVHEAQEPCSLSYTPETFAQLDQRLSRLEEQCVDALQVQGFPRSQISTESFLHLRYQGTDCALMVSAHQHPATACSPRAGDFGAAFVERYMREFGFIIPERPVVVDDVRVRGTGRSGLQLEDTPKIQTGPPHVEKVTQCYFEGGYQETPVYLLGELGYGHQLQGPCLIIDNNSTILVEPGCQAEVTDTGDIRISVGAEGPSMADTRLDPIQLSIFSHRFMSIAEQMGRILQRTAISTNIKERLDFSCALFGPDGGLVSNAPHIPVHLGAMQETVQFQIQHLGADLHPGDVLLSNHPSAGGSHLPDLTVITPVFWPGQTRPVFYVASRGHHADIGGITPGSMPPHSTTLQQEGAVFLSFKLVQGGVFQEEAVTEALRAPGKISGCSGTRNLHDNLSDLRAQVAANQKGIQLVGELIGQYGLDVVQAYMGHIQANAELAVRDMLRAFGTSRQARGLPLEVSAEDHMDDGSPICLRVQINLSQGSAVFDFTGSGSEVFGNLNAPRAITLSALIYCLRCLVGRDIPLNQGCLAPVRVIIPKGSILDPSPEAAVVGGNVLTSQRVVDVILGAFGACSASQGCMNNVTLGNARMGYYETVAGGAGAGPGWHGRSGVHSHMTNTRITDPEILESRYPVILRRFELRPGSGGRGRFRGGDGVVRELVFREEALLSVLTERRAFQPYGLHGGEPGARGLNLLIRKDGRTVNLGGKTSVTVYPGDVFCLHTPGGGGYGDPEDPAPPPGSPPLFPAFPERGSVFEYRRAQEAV
Briefly: Action of 5-oxo-L-prolinase on substrates (products formed). Type of assay: biochemical. The note with it: for Products Formed: ADP: 5 mM ATP, 30 min at 37° C., pyruvate kinase-lactate dehydrogenase coupled assay; for Reaction on incubation with 5-oxo-L-prolinase: in the presence of ATP. The method, then:
(§1) In the experiments the reaction mixtures were made up to contain (final volume 0.5 ml) 100 mM Na Hepes (Na salt of N-2-hydroxyethylpiperizine-N'-2ethanesulfonic acid) buffer (pH 8.0), 150 mM KCl, 8 mM MgCl2, 2 mM phosphoenolpyruvate, 5 mM ATP (adenosine triphosphate), pyruvate kinase, in excess, 20 micrograms of 5-oxoprolinase, and the substrate as indicated.
(§2) The L-and D-isomers of 2-oxothiazolidine-4-carboxylate were synthesized by the method set out in Kaneko et al, Bull, Chem. Soc. (Japan) vol. 37, pp. 242-4 (1964) as modified by the method of Shah et al, Cancer Research vol. 39, pp. 3942-7 (1979). 5-Oxo-L-prolinase was isolated from rat kidney and freed of 5-oxoproline by gel filtration. Other chemicals and materials were obtained commercially.
(§3) After incubation ofr 30 min. at 37° C., the reaction mixtures were treated with 0.1 volume of 1 M HCl, and placed at 0° C. for 5 min.; and an equivalent volume of 1 M 2-amino-2-hydroxylmethyl-1,3,-propanediol was added. Portions were analyzed for amino acids by use of a Durrum Model 500 amino acid analyzer. Cysteine was also determined in some experiments by reaction with 5,5'-dithiobis (2-initrobenzoate) (DTNB).

The target in assay [2] is T1, 5-oxo-L-prolinase. Briefly: Inhibition of utilization of 5-oxo-L-proline (glutamate formation) by the purified enzyme. In kind it is biochemical. The conditions noted are these: 1 mM 5-oxo-L-proline. The method, then: as §1, §2, §3
Energy for the reaction is supplied by the cleavage of ATP. […] The ratio of ADP to cysteine produced increased with time due undoubtedly to the loss of cysteine due to oxidation.

In assay [3] the test system is hepatic glutathione. Description: Hepatic glutathione level after injection. Type of assay: in vivo, mice. The note with it: for hepatic glutathione level relative to controls: mice fasted overnight, 6.5 mmol/kilo intraperitoneally (D-isomer: equivalent doses). The method, then:
The effect of injecting mice with L-2-oxothiazolidine-4-carboxylate on the level of hepatic gluathione was studies. […] The maximal effect was observed about 4 hours after injection. […] These findings are indicative of in vivo formation of cysteine after administration of L-2- oxothiazolidine-4-carboxylate.
Mice fasted overnight were injected intraperitoneally with NaCl (controls; dashed line) or with Na L-2-oxothiazolidine-4-carboxylate (6.5 mmol/kilo). At intervals, the mice were sacrificed and the excised liver was homogenized in 5 volumes of 1% picric acid. After centrifugation, the protein-free supernatant solutions were analyzed for glutathione by the method of Tietze, Anal. Biochem 27, 502-22(1969). Analyses were carried out in duplicate. In a number of instances, these values were checked by the 2-vinylpyridine procedure of Griffith, Anal. Biochem. 106; 207-12(1980); good agreement between the two methods was observed. In the figure, the points are mean values and the bars indicate the average deviation from the mean. The numbers in parentheses give the number of animals used. The value for the controls was 4.40±0.9 umol/g.

For assay [4], the system named is 5-oxoproline metabolism. The conditions noted are these: previous studies of the inventors; cited from earlier work.
Assay [5] has as its system liver glutathione. Description: Hepatic glutathione in mice depleted of glutathione (acetoaminophenol). Type of assay: in vivo. The method, then:
Administration of this compound therefore provides a way of getting cysteine into cells. One cannot give cysteine itself without complications since this amino acid is toxic extracellularly. However, when the L-oxothiazolidine compound is injected it enters the cell where it is split giving rise to cysteine within the cell. In a number of clinical situations, for example, after poisoning with excessive pain-killing drugs, e.g., those containing active ingredients known as N-acetyl-para-aminophenol, paracetamol, and acetaminophen, the liver glutathione levels decrease markedly. When cysteine is supplied to liver cells, additional glutathione can be synthesized and thus serve usefully in detoxifying the offending drug. Therefore, L-2-oxothiazolidine-4-carboxylate serves as an intracellular delivery system for cysteine and has potential as a therapeutic agent in situations in which there is depletion of liver glutathione. After acetoaminophenol is given to experimental animals such as mice, the liver glutathione declines rapidly because it is extensively utilized by reaction with the drug. […] For human treatment the L-isomer, preferably in the form of its neutral salt is administered directly into the gastro-intestinal tract or introduced intravenously.

The test system of assay [6] is tissue cysteine. Description: Tissue/liver cysteine after administration. Type of assay: in vivo, mice.
Assay [7] has as its system metabolism of glutamate. Briefly: In vivo metabolism of L-[14C]glutamate (respiratory 14CO2). The note with it: mice, 2.5 mmol/kilo intraperitoneally. The method, then:
(§4) The in vitro results showing that L-2-oxothiazolidine-4-carboxylate inhibits utilization of 5-oxoproline were confirmed by in vivo experiments. In the latter, animals were injected with 5-oxo-L-[^14 C] proline and the respiratory [^14 CO2 ] produced was collected and measured for several hours. […] However, L-2- oxothiazolidine-4-carboxylate is a much more efficient inhibitor.
(§5) FIG. 3depicts the inhibition of 5-oxoproline metabolism by L-2- oxothiazolidine-4-carboxylate. Mice fasted overnight were injected intraperitoneally with NaCl (Curve 1; open symbols; controls) or with Na L-2-oxothiazolidine-4-carboxylate (2.5 mmol/kilo) (Curve 2; closed symbols). After 10 min., the mice were injected subcutaneously with 5-oxo-L-[^14 C] proline (A) or with L-[^14 C] glutamate (B) (0.02 mmol; 1.1×10^6 cpm). The mice were then placed in metabolic chambers and the respiratory CO2 was collected in ethanolamine/methanol, 1:4 (vol/vol). In A, each curve represents the results on 3 animals; the points are mean values and the bars represent standard deviations from the mean. In B, each curve represents the average of closely-agreeing results obtained from 2 animals.

The subject of assay [8] is 5-oxoproline metabolism. Briefly: In vivo inhibition of 5-oxoproline metabolism (respiratory 14CO2 after 5-oxo-L-[14C]proline). The arrangement: species or system mice. The method, then:
as §4, §5

With `O=C1CC[C@@H](C(=O)O)N1` [5-Oxo-L-proline, 5-oxo-L-proline], the “calculated Vmax value” in assay [1] (compared with the L-isomer) was “higher than that found for the L-isomer”. Besides, in assay [1] (substrate 2 mM), the “Products Formed: ADP” value came out at 924 nmol. In assay [1] (substrate 2 mM, as glutamate), the “Products Formed: Amino Acid (as glutamate)” value was found to be 916 nmol.
Regarding `O=C1N[C@@H](C(=O)O)CS1` [D-2-oxothiazolidine-4-carboxylate], the “inhibition of glutamate formation (in words)” value in assay [2] (same conditions) is recorded as “did not inhibit glutamate formation”. Besides, the “hepatic glutathione level relative to controls” value in assay [3] is recorded as “No such stimulation was observed”. Moreover, in assay [1], the “Reaction on incubation with 5-oxo-L-prolinase” value was “No reaction was observed”. The “Products Formed: ADP” value in assay [1] (substrate 5 mM) came to 96 nmol. For the same molecule, the “Products Formed: Amino Acid” value in assay [1] (substrate 5 mM, after reduction with KBH4 and reaction with iodoacetamide, footnote: less than 20 nmol) is 0 nmol.
Regarding `O=C1NC[C@@H](C(=O)O)N1` [L-2-imidazolidone-4-carboxylate], in assay [4], the “in vivo metabolism of 5-oxoproline” value is reported as “markedly inhibits”. The “Products Formed: ADP” value in assay [1] (substrate 2 mM) worked out at 930 nmol. In assay [1] (substrate 2 mM, footnote: less than 5 nmol), the “Products Formed: Amino Acid” value was determined as 0 nmol.
The term inhibition denotes the relative decrease from the control value, in per cent. High values mean a strong effect, low ones a weak effect. In turn, `O=C1N[C@H](C(=O)O)CS1` [L-2-oxothiazolidine-4-carboxylate] came in with an inhibition at 1000 µM in assay [2] (inhibitor 1 mM) of 73%. In assay [2] (inhibitor 5 mM), this molecule came in with an inhibition at 5000 µM of 92%. Besides, at 10000 µM the inhibition in assay [2] (inhibitor 10 mM) was 97%. Also, the “hepatic glutathione level relative to controls” value in assay [3] is recorded as “about twice those of the controls”. Besides, the “time of maximal effect on hepatic glutathione after injection” value in assay [3] (mice, 6.5 mmol/kilo intraperitoneally) is “about 4 hours”. The “liver glutathione after acetoaminophenol” value in assay [5] (mice, given even two hours after the drug) is “an increase in liver glutathione occurs”. The “hepatic glutathione levels in mice depleted of hepatic glutathione” value in assay [5] (mouse, in vivo) is “restoration of normal hepatic glutathione levels”. The “cysteine content of tissues” value in assay [6] (administration to animals) is “increase in the cysteine content of tissues, especially the liver”. For the same molecule, the “free cysteine in acid extracts of the livers” value in assay [6] (amino acid analysis after dithiothreitol reduction and 2-vinylpyridine derivatization) was “No free cysteine was detected”. In assay [1] (compared with the natural substrate), the “apparent Km value” is reported as “somewhat lower than that found for the natural substrate”. Besides, the “Reaction on incubation with 5-oxo-L-prolinase” value in assay [1] is “rapid formation of ADP and cysteine”. Also, the “Products Formed: ADP” value in assay [1] (substrate 2 mM) was 478 nmol and 499 nmol. In addition, the “Products Formed: Amino Acid” value in assay [1] (substrate 2 mM, after conversion to cystine) came to 463 nmol; in assay [1] (substrate 2 mM, determined after reduction with KBH4 and reaction with iodoacetamide) it was 466 nmol. In addition, the “effect on the metabolism of glutamate” value in assay [7] was “does not have a significant effect”. The “formation of respiratory 14CO2 from 5-oxo-L-[14C]proline” value in assay [8] (mice, 2.5 mmol/kilo intraperitoneally 10 min before label) is “marked decrease”. Besides, in assay [8] (on a molar basis), the “in vivo inhibitory activity relative to L-2-imidazolidone-4-carboxylate” value is listed as “at least four times more active”. In addition, in assay [8] (treated animals, none found in the urine of the controls), the “injected 5-oxo-L-[14C]proline dose excreted in urine” value is recorded as “about 16 % of the injected dose”.
